Assay results: PubChem BioAssay AID200 (DTP/NCI, 2004)
Values joined by “and” are separate entries in the source; they are usually repeats but may differ in a detail not shown here. Equal values may be shown once. Toxic doses and inconclusive results are not listed.

Test system: B6C3F1 mice, B16 melanoma ip, median survival T/C
Assay: NCI In Vivo Anticancer Drug Screen. Data for tumor model B16 Melanoma (intraperitoneal) in B6C3F1 mice
Details: endpoint: median survival time, schedule: Q01DX009 (ip), higher = longer survival
Outline: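 Mice bearing transplanted tumor were dosed with compound or vehicle, and survival was recorded. Activity is expressed as the treated-group measurement (T) divided by the vehicle control measurement (C).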

[1] = dose: 0.5 mg/kg/injection, vehicle: saline
[2] = dose: 1.0 mg/kg/injection, vehicle: saline
[3] = dose: 2.0 mg/kg/injection, vehicle: saline
[4] = dose: 1.56 mg/kg/injection, vehicle: saline with Tween-80
[5] = dose: 3.12 mg/kg/injection, vehicle: saline with Tween-80
[6] = dose: 6.25 mg/kg/injection, vehicle: saline with Tween-80
[7] = dose: 0.25 mg/kg/injection, vehicle: saline
[8] = dose: 50.0 mg/kg/injection, vehicle: Klucel (hydroxypropylcellulose) (HPC)
[9] = dose: 100.0 mg/kg/injection, vehicle: Klucel (hydroxypropylcellulose) (HPC)
[10] = dose: 12.5 mg/kg/injection, vehicle: saline with Tween-80
[11] = dose: 25.0 mg/kg/injection, vehicle: saline with Tween-80
[12] = dose: 100.0 mg/kg/injection, vehicle: saline with Tween-80

With `CCC1CC2CN(CCc3c([nH]c4ccccc34)C(C(=O)OC)(c3cc4c(cc3OC)N(C)C3C(O)(C(=O)OC)C(OC(C)=O)C5(CC)C=CCN6CCC43C65)C2)C1` (stereo not drawn) the T/C (dose: 0.06 mg/kg/injection, vehicle: saline) was 111 % of control, the T/C (dose: 0.06 mg/kg/injection, vehicle: suspension in saline) was 116 % of control and the T/C (dose: 0.12 mg/kg/injection, vehicle: suspension in saline) was 114 % of control. For the same molecule, the T/C (dose: 0.13 mg/kg/injection, vehicle: saline) was 110 % of control, the T/C [1] was 175 % of control and the T/C [2] was 208 % of control. The T/C [3] was 248 % of control and the T/C (dose: 2.0 mg/kg/injection, vehicle: suspension in saline) was 226 % of control.
For `C[CH2][Sn]([CH2]C)([CH2]C(=O)OC)[CH2]C(=O)OC`, the T/C [4] was 95 % of control, the T/C [5] was 107 % of control and the T/C [6] was 90 % of control.
In the case of `CC1=NN(c2ccccc2)C(=O)C1N=Nc1ccccc1S(=O)(=O)O` (stereo not drawn), the T/C (dose: 12.5 mg/kg/injection, vehicle: saline) is reported as 104 % of control, the T/C (dose: 25.0 mg/kg/injection, vehicle: saline) is reported as 94 % of control and the T/C (dose: 50.0 mg/kg/injection, vehicle: saline) is reported as 96 % of control.
With `Cc1c(N)nc([C@H](CC(N)=O)NC[C@H](N)C(N)=O)nc1C(=O)N[C@H](C(=O)N[C@H](C)[C@@H](O)CC(=O)N[C@H](C(=O)NC(O[C@@H]1O[C@@H](C)[C@@H](N)[C@@H](O)[C@H]1O)C(O)c1nc(-c2nc(C(=O)NCCCCN)cs2)cs1)[C@@H](C)O)[C@@H](O[C@@H]1O[C@@H](CO)[C@@H](O)[C@H](O)[C@@H]1O[C@H]1O[C@H](CO)[C@@H](O)[C@H](OC(N)=O)[C@@H]1O)c1c[nH]cn1` (stereo partly drawn) the T/C [7] was 104 % of control, the T/C (dose: 0.4 mg/kg/injection, vehicle: saline) was 116 % of control and 94 % of control and the T/C [1] was 107 % of control. For the same molecule, the T/C (dose: 0.8 mg/kg/injection, vehicle: saline) was 94 % of control, the T/C [2] was 115 % of control and the T/C (dose: 1.6 mg/kg/injection, vehicle: saline) was 98 % of control. For the same molecule, the T/C [3] was 114 % of control, the T/C (dose: 3.2 mg/kg/injection, vehicle: saline) was 101 % of control and the T/C (dose: 4.0 mg/kg/injection, vehicle: saline) was 121 % of control. The T/C (dose: 6.4 mg/kg/injection, vehicle: saline) was 97 % of control.
With `CNc1c(NC)n(C)c(=O)n(C)c1=O` the T/C (dose: 100.0 mg/kg/injection, vehicle: saline) was 92 % of control, the T/C (dose: 200.0 mg/kg/injection, vehicle: saline) was 100 % of control and the T/C (dose: 400.0 mg/kg/injection, vehicle: saline) was 96 % of control.
For `O=C(O)CC(=O)O.[NH-]CC[NH-].[Pt+2]`, the T/C (dose: 12.5 mg/kg/injection, vehicle: dextrose) was 175 % of control and the T/C (dose: 25.0 mg/kg/injection, vehicle: dextrose) was 86 % of control.
In the case of `CC(C)(C)OC(=O)NC(CC(=O)OCc1ccccc1)C(=O)ON1C(=O)CCC1=O` (stereo not drawn), the T/C (dose: 25.0 mg/kg/injection, vehicle: Klucel (hydroxypropylcellulose) (HPC)) is reported as 93 % of control, the T/C [8] is reported as 91 % of control and the T/C [9] is reported as 95 % of control.
With `O=C1NC(=O)C2(CCC(C3CCCCC3)CC2)N1` (stereo not drawn) the T/C [8] was 87 % of control, the T/C [9] was 89 % of control and the T/C (dose: 200.0 mg/kg/injection, vehicle: Klucel (hydroxypropylcellulose) (HPC)) was 89 % of control.
For `COc1cc([C@@H]2c3cc4c(cc3[C@H](O)[C@H]3COC(=O)[C@H]23)OCO4)cc(OC)c1OC`, the T/C (dose: 0.36 mg/kg/injection, vehicle: Klucel (hydroxypropylcellulose) (HPC)) was 116 % of control, the T/C (dose: 0.6 mg/kg/injection, vehicle: Klucel (hydroxypropylcellulose) (HPC)) was 102 % of control and the T/C (dose: 1.0 mg/kg/injection, vehicle: Klucel (hydroxypropylcellulose) (HPC)) was 107 % of control. For the same molecule, the T/C (dose: 1.67 mg/kg/injection, vehicle: Klucel (hydroxypropylcellulose) (HPC)) was 103 % of control, the T/C (dose: 2.0 mg/kg/injection, vehicle: Klucel (hydroxypropylcellulose) (HPC)) was 123 % of control and the T/C (dose: 2.78 mg/kg/injection, vehicle: Klucel (hydroxypropylcellulose) (HPC)) was 114 % of control. For the same molecule, the T/C (dose: 4.0 mg/kg/injection, vehicle: Klucel (hydroxypropylcellulose) (HPC)) was 114 % of control.
`O=C(Nc1ccccc1C(=O)O)c1cc([N+](=O)[O-])cc([N+](=O)[O-])c1` was tested, and the T/C [10] was 92 % of control, the T/C [11] was 100 % of control and the T/C (dose: 50.0 mg/kg/injection, vehicle: saline with Tween-80) was 97 % of control. The T/C [12] was 96 % of control.
With `[Cl][Pt+2][Cl].[NH-]c1ccc(Cl)cc1[NH-]` the T/C (dose: 2.5 mg/kg/injection, vehicle: saline with Tween-80) was 116 % of control and the T/C (dose: 20.0 mg/kg/injection, vehicle: saline with Tween-80) was 168 % of control.
With `C/C(=N\O)C(O)c1ccccc1` (stereo not drawn) the T/C [12] was 98 % of control, the T/C (dose: 200.0 mg/kg/injection, vehicle: saline with Tween-80) was 107 % of control and the T/C (dose: 400.0 mg/kg/injection, vehicle: saline with Tween-80) was 92 % of control.
In the case of `Cc1c(O)ccc(=O)n1O`, the T/C (dose: 16.0 mg/kg/injection, vehicle: saline with Tween-80) is reported as 101 % of control, the T/C (dose: 32.0 mg/kg/injection, vehicle: saline with Tween-80) is reported as 98 % of control and the T/C (dose: 64.0 mg/kg/injection, vehicle: saline with Tween-80) is reported as 101 % of control. The T/C (dose: 128.0 mg/kg/injection, vehicle: saline with Tween-80) was 104 % of control.
`C=C1CCC[C@@]2(C)CC[C@@H](/C(C)=C\C=C\C(C)(C)O)C[C@H]12` was tested, and the T/C (dose: 12.5 mg/kg/injection, vehicle: Klucel + Tween-80) was 113 % of control, the T/C (dose: 25.0 mg/kg/injection, vehicle: Klucel + Tween-80) was 106 % of control and the T/C (dose: 50.0 mg/kg/injection, vehicle: Klucel + Tween-80) was 107 % of control. The T/C (dose: 100.0 mg/kg/injection, vehicle: Klucel + Tween-80) was 112 % of control and the T/C (dose: 200.0 mg/kg/injection, vehicle: Klucel + Tween-80) was 90 % of control.
For `COc1cccc2c1C(=O)c1c(O)c3c(c(O)c1C2=O)C[C@@](O)(C(=O)COC(=O)c1cccnc1)C[C@@H]3OC1CC(N)C(O)C(C)O1` (stereo partly drawn), the T/C [7] was 170 % of control, the T/C [1] was 198 % of control and the T/C [2] was 220 % of control. The T/C [3] was 255 % of control.
`ClC1=C(Cl)C2(Cl)C3C(Cl)C(Cl)CC3C1(Cl)C2(Cl)Cl` (stereo not drawn) was tested, and the T/C [4] was 106 % of control, the T/C [5] was 98 % of control and the T/C [6] was 101 % of control. For the same molecule, the T/C [10] was 97 % of control, the T/C (dose: 25.0 mg/kg/injection, vehicle: other) was 95 % of control and the T/C [11] was 87 % of control. For the same molecule, the T/C (dose: 50.0 mg/kg/injection, vehicle: other) was 106 % of control and the T/C (dose: 100.0 mg/kg/injection, vehicle: other) was 97 % of control.
For `Cc1cc(NCCN(C(C)C)C(C)C)nc(/N=C(\N)Nc2ccc(Cl)c(C(F)(F)F)c2)n1`, the T/C (dose: 1.25 mg/kg/injection, vehicle: Klucel (hydroxypropylcellulose) (HPC)) was 111 % of control, the T/C (dose: 2.5 mg/kg/injection, vehicle: Klucel (hydroxypropylcellulose) (HPC)) was 106 % of control and the T/C (dose: 5.0 mg/kg/injection, vehicle: Klucel (hydroxypropylcellulose) (HPC)) was 100 % of control. For the same molecule, the T/C (dose: 10.0 mg/kg/injection, vehicle: Klucel (hydroxypropylcellulose) (HPC)) was 86 % of control, the T/C (dose: 20.0 mg/kg/injection, vehicle: Klucel (hydroxypropylcellulose) (HPC)) was 96 % of control and the T/C (dose: 40.0 mg/kg/injection, vehicle: Klucel (hydroxypropylcellulose) (HPC)) was 98 % of control.
